Consider 13 molecules from US6426204B1, “Method for detecting candida infection” (priority 1991, dated 2002).

The target of the first assay is T1, C. tropicalis D-arabinitol dehydrogenase (Candida tropicalis, UniProt P50166).
T1 construct: endogenous in cells
T1 sequence (P50166 whole entry): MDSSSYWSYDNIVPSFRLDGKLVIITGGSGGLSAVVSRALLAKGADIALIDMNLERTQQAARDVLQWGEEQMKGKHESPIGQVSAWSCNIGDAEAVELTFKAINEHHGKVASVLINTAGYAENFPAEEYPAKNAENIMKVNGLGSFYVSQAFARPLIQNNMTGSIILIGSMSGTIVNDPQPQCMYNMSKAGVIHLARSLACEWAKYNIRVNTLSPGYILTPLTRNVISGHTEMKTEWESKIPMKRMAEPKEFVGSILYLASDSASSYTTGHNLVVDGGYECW
Kind of assay: Specificity of the fluorogenic D-arabinitol assay (reactivity of sugars and sugar alcohols). To be noted: compound 5 μmol/L in PBS/10 mmol/L citrate pH 4.0; relative to D-arabinitol. The format is biochemical. The procedure: Human serum was diluted 1:3 (v/v) with 10 mmol/L citrate (pH 4.0), placed in a boiling water bath for 10 min, and then centrifuged at 10,000×g for 10 min to remove precipitated material. The supernatant was used as the sample. Reaction mixtures (vol.=0.4 mL) contained 0.3 mL of sample, 1 mmol/L NAD^+, 4 mmol/L Mg^2+, 0.35 IU C. tropicalis D-arabinitol dehydrogenase prepared as described in Example 1, and 0.1 mol/L Tris (pH 9.5). Incubation was for 15 min at room temperature to promote the D-arabinitol dehydrogenase-catalyzed oxidation of D-arabinitol with concomitant reduction of NAD^+ to NADH. This initial incubation stage was terminated by reducing the pH of the reaction mixture to 5.8 with 0.03 mL 1.0 mol/L citrate (pH 3.6). Resazurin (12.5 μmol/L) and diaphorase (0.15 IU) were then added, and the sample was reincubated at room temperature to promote the diaphorase-catalyzed utilization of NADH (which had accumulated in the initial incubation stage) for the reduction of resazurin to resorufin. Formation of the latter was monitored fluorometrically (Excitation=560 nm, Emission=580 nm) using a Perkin-Elmer fluorescence spectrophotometer, Model #650-40, and was complete within 30 sec.
A series of sugars and sugar alcohols normally present in human serum were assessed for reactivity in the fluorometric assay. Of the compounds examined, significant reactivity relative to that observed with an equimolar concentration of D-arabinitol was found only with xylitol (3.3%). D-glucose at concentrations as great as 5.0 mmol/L was not utilized as “a” substrate.
Assays were performed as described in Example 4 except the sample contained, instead of the boiled serum supernatant, the indicated compound in PBS/10 mmol/L citrate, pH 4.0 (1:3, v/v).
On to `OC[C@@H](O)[C@@H](O)[C@H](O)[C@H](O)CO` [D-mannitol], for which the “Relative Reactivity” value stood at 0%.

Regarding `OC[C@@H](O)C(O)[C@H](O)CO` [D-arabinitol], the “Relative Reactivity” value came out at 100%.

Consider `OC[C@@H](O)[C@H](O)[C@H](O)[C@@H](O)CO` [galactitol], for which the “Relative Reactivity” value turned out to be 0.6%.

Regarding `OC[C@@H](O)[C@@H](O)[C@H](O)[C@@H](O)CO` [D-sorbitol], the “Relative Reactivity” value is recorded as 0.1%.

In the case of `OC[C@@H](O)[C@@H](O)[C@@H](O)CO` [ribitol], the “Relative Reactivity” value was determined as 0%.

Consider `OC[C@@H](O)[C@H](O)CO` [threitol], for which the “Relative Reactivity” value is 0.1%.

As to `OC[C@@H](O)[C@@H](O)CO` [erythritol], the “Relative Reactivity” value is listed as 0%.

With `OC[C@@H](O)[C@H](O)[C@@H](O)CO` [xylitol], the “Relative Reactivity” value came to 3.3%.

As to `OC[C@H](O)C(O)[C@@H](O)CO` [L-arabinitol], the “Relative Reactivity” value was 0%.

The assay is the same for the next values; noted with them: compound 500 μmol/L in PBS/10 mmol/L citrate pH 4.0; relative to D-arabinitol.
As for `O=C(CO)[C@@H](O)[C@H](O)[C@H](O)CO` [D-fructose], the “Relative Reactivity” value is on record as 0%.

`O=C[C@@H](O)[C@@H](O)[C@H](O)[C@H](O)CO` [D-mannose]: the “Relative Reactivity” value was determined as 0.3%.

Take `O=C[C@H](O)[C@@H](O)[C@@H](O)[C@H](O)CO` [D-galactose]: the “Relative Reactivity” value came out at 0.9%.

The same assay, now with this note: compound 5000 μmol/L in PBS/10 mmol/L citrate pH 4.0; relative to D-arabinitol.
Consider `O=C[C@H](O)[C@@H](O)[C@H](O)[C@H](O)CO` [D-glucose], for which the “Relative Reactivity” value is given as 0%.

The assay is the same for the next values; noted with them: concentrations as great as 5.0 mmol/L.
In the case of `O=C[C@H](O)[C@@H](O)[C@H](O)[C@H](O)CO` [D-glucose], the “Utilization as substrate in the fluorometric assay” value is “not utilized”.
